In patent publication US20250213474A1, “COMPOSITIONS AND METHODS FOR METAL CONTAINING FORMULATIONS CAPABLE OF MODULATING IMMUNE RESPONSE” (The Regents of the University of Michigan, priority 2021, published 2025):

What was measured:
CT26 colon cancer cells [1] = assay: CT26 tumor model, I.V. administration of CMP; format: in vivo; details: free CDA 100 μg; CMPCDA 20 μg
Experimental: (FIG. 22A) CT26 tumor-bearing BALB/c mice were treated with CDA+ Mn^2+ or CMPCDA, I.V. on days 9, 12, and 15. […] (FIGS. 22D-22F) Tumor growth (FIGS. 22D-22E) and animal survival (FIG. 22F) were Monitored over time. (FIG. 22G) Survivors re-challenged with CT26 tumor cells on day 145 were monitored for tumor Growth and survival.
For CT26 murine tumor model, female BALB/c mice of age 6-8 weeks (Jackson Laboratories) were inoculated with 1.5×10^5 CT26 colon cancer cells subcutaneously on the right back flank. […] Tumor-bearing mice were randomly assigned to different treatment groups. Indicated drugs or formulations were administrated via indicated route at indicated time points. Tumor size and survival were monitored every 2-4 days. Tumor size was calculated based on equation: volume=length×width^2×0.5. Animals were euthanized when the tumor reached 1.5 cm in diameter or when animals became moribund with severe weight loss or un-healing ulceration.
To address this issue, we evaluated the therapeutic effect of CMP after I.V. administration. CT26 tumor-bearing BABL/c mice were treated I.V. on days 9, 12, and 15 with 20 μg CDA and 10 μg Mn^2+ either in CMPCDA or soluble form (FIG. 22A).

CT26 colon cancer cells [2] = assay: CT26 colon tumor model, metal ion-CDA combinations and coordination formulations; format: in vivo, Balb/c mice; parameters: concentration or dose not given beside the values; details: three doses intratumoral on day 9, 12, 15
Experimental: FIGS. 6A-6D: Enhanced STING activation and cancer therapy efficacy by Co^2+ and Mn^2+ in Vivo. (FIG. 6A) individual tumor growth curve after three doses of intratumor injection of the indicated formulation at day 9, 12, 15 after tumor inoculation. (FIG. 6B) Serum IFN-beta concentration 8 h after the 1st dose of the indicated formulation. (FIGS. 6C-6D) individual tumor growth (FIG. 6C) and survival (FIG. 6D) of the tumor bearing mice after treated with the indicated formulations.
FIGS. 7A-7E: Enhanced STING activation by Co^2+ and Mn^2+ led to improved antigen specific immune response after In vivo. (FIG. 7A) the percentage of AH1-specific CD8+ T cells among PBMC on day 16. (FIG. 7B) IFN-γ secreting cells counts per 5E4 PBMCs after stimulation with AH1 peptides at day 22. […]
All animals were cared for following federal, state, and local guidelines. […] Tumor size and survival were monitored every 2 or 3 days. Tumor size was calculated based on equation: volume=length×width^2×0.5. […] At day 17, the percentages of tumor antigen-specific CD8α+ T cells among PBMC were analyzed using the tetramer staining assay as described previously with peptide-MHC tetramer ([…] AH1) (the NIH Tetramer Core Facility, Atlanta, GA). […]

NOOC1 tumor cells = assay: NOOC1 ICB-resistant squamous cell carcinoma model; format: in vivo, C57BL/6 mice; details: CDA dose 5 μg I.T. or 20 μg I.V., days 9, 12, 16, 20
Experimental: NOOC1 was maintained in the IMDM media (Gibco cat #12440053). To make 1L of growth media for NOOC1, 626 ml IMDM base was mixed with 313 ml F-12 nutrient mix (Gibco cat #11765054), 50 ml FBS (Hyclone cat #SH3039603), 10 ml Pen Strep (Thermo Fisher cat #15-140-122), 1.25 ml of 4 mg/ml insulin (Invitrogen cat #12585014), 200 μl of 200 μg/ml hydrocortisone (Sigma-Aldrich cat #H0888-1G), and 50 μl of 100 μg/ml EGF (EMD Millipore cat #01-107). For in vivo implantation, Matrigel (Thermo Fisher cat #CB-40230) was thawed overnight at 4° C. On the day of injection, NOOC1 was washed once with PBS and mixed with Matrigel to reach a density of 2×10^7 cells/ml. Each mouse was inoculated subcutaneously with 2×10^6 cells (100 μl). Tumor size and survival were monitored every 2 or 3 days as indicated above.
To further evaluate the potency of CMP, we performed head-to-head comparison studies between CMPCDA and other STING-activating formulations. C57BL/6 mice were inoculated at S.C. flank with 3×10^5 B16F10 tumors cells, and we administered three doses of CMPCDA on three-day intervals via either I.T. route when the average tumor volume reached 153±17 mm^3 (FIGS. 23A-23E) or via I.V. route when the average tumor volume reached 63±7 mm^3. (FIGS. 23F-23J)). […]

Structure (SMILES): Nc1ncnc2c1ncn2[C@@H]1O[C@@H]2COP(=O)(O)O[C@H]3[C@@H](O)[C@H](n4cnc5c(N)ncnc54)O[C@@H]3COP(=O)(O)O[C@H]2[C@H]1O [free CDA, cyclic-di-AMP]
- control of tumor growth by I.V. therapy (CT26 colon cancer cells [1]): could not control tumor growth
- survival rate (CT26 colon cancer cells [2]): 20%
- anti-tumor efficacy in NOOC1 model (NOOC1 tumor cells): refractory
